Laboratory results as given in ChEMBL document CHEMBL1153832, “Identification and characterization of UK-201844, a novel inhibitor that interferes with human immunodeficiency virus type 1 gp160 processing” (Antimicrob Agents Chemother, 2007).
Activity calls are given as the source filed them. No cut-off for these calls is given here.

Assays:
[1] = system: Human immunodeficiency virus 1; test: Ratio of EC50 for recombinant HIV1 NL4-3 bearing envelope with G354E substitution to EC50 for parental HIV1 NL4-3; assay type: functional
[2] = system: Human immunodeficiency virus 1; test: Antiviral activity against HIV1 Ba-L infected in human PM1 cells assessed as inhibition of viral p24 antigen production after 5 days; assay type: functional, organism-based; conditions: Human immunodeficiency virus 1, Ba-L, PM1, 120 h
[3] = system: Human immunodeficiency virus 1; test: Antiviral activity against HIV1 NL4-3 transfected in HEK293 cells assessed as inhibition of infectious virus production at 15 uM; assay type: functional; design: scale not given: the % may be the effect or the level left
[4] = system: Human immunodeficiency virus 1; test: Antiviral activity against HIV1 NL4-3 infected in human CEM-SS cells; assay type: functional, organism-based
[5] = system: Human immunodeficiency virus 1; test: Inhibition of HIV1 NL4-3 proteins incorporation into virions transfected in HEK293 cells assessed as unprocessed gp160 Env protein at 15 uM by Western blot; assay type: functional, organism-based
[6] = system: Human immunodeficiency virus 1; test: Antiviral activity against HIV1 NL4-3 infected in human C8166 cells; assay type: functional, organism-based
[7] = system: Human immunodeficiency virus 1; test: Antiviral activity against HIV1 NL4/3BFL chimeric virus transfected in HEK293 cells assessed as inhibition of viral envelope gp160/gp120 processing at 15 uM by Western blot; assay type: functional; conditions: Human immunodeficiency virus 1, NL4/3BFL
[8] = system: Human immunodeficiency virus 1; test: Ratio of EC50 for recombinant HIV1 NL4-3 bearing envelope with G354E, V372E substitutions to EC50 for parental HIV1 NL4-3; assay type: functional
[9] = system: Human immunodeficiency virus 1; test: Antiviral activity against HIV1 bearing HIV1 NL4-3 envelope assessed as reduction in viral envelope-mediated membrane fusion by cell-based fusion assay; assay type: functional, organism-based
[10] = system: Human immunodeficiency virus 1; test: Antiviral activity against HIV1 3B infected in human MT2 cells assessed as inhibition of virus-induced cytopathic effect after 6 days by XTT assay; assay type: functional, organism-based; conditions: Human immunodeficiency virus 1, 3B, MT2, 144 h
[11] = Cytotoxicity against human MT2 cells after 6 days by XTT assay; assay type: cell-based
[12] = system: Human immunodeficiency virus 1; test: Antiviral activity against HIV1 NL4-3 infected in human MT2 cells assessed as inhibition of viral p24 antigen level at 7.5 uM by Western blot; assay type: functional; conditions: Human immunodeficiency virus 1, NL4-3, MT2
[13] = system: Human immunodeficiency virus 1; test: Antiviral activity against HIV1 NL4-3 infected in human MT2 cells assessed as inhibition of viral p24 antigen level at 1.0 uM by Western blot; assay type: functional; conditions: Human immunodeficiency virus 1, NL4-3, MT2
[14] = system: Human immunodeficiency virus 1; test: Antiviral activity against recombinant HIV1 NL4/3BNt chimeric virus infected in human MT2 cells assessed as inhibition of virus-induced CPE; assay type: functional, organism-based; conditions: Human immunodeficiency virus 1, NL4/3BNt
[15] = system: Human immunodeficiency virus 1; test: Ratio of EC50 for recombinant HIV1 NL4-3 bearing envelope with G354E, D474N substitutions to EC50 for parental HIV1 NL4-3; assay type: functional
[16] = system: Human immunodeficiency virus 1; test: Antiviral activity against recombinant HIV1 NL4/3BFL chimeric virus infected in human MT2 cells assessed as inhibition of virus-induced CPE; assay type: functional, organism-based; conditions: Human immunodeficiency virus 1, NL4/3BFL
[17] = system: Human immunodeficiency virus 1; test: Antiviral activity against HIV1 bearing VSV envelope infected in human MT2 cells assessed as inhibition of VSV-envelope packed virions at 15 uM after 72 hrs by virus production assay relative to control; assay type: functional; conditions: Human immunodeficiency virus 1, MT2, 72 h
[18] = system: Human immunodeficiency virus 1; test: Antiviral activity against HIV1 NL4-3 infected in human PM1 cells assessed as inhibition of viral p24 antigen production after 5 days; assay type: functional, organism-based; conditions: Human immunodeficiency virus 1, NL4-3, PM1, 120 h
[19] = system: Human immunodeficiency virus 1; test: Antiviral activity against HIV1 NL4-3 infected in human MT2 cells assessed as inhibition of viral p24 antigen level at 15 uM by Western blot; assay type: functional; conditions: Human immunodeficiency virus 1, NL4-3, MT2
[20] = system: Human immunodeficiency virus 1; test: Antiviral activity against HIV1 bearing HIV1 NL4-3 envelope infected in human MT2 cells assessed as inhibition of HIV-envelope packed virions at 15 uM after 72 hrs by virus production assay relative to control; assay type: functional; conditions: Human immunodeficiency virus 1, MT2, 72 h
[21] = system: Human immunodeficiency virus 1; test: Antiviral activity against HIV1 NL4/3BFL chimeric virus infected in human MT2 cells assessed as inhibition of viral p24 antigen level at 2 uM by Western blot; assay type: functional; conditions: Human immunodeficiency virus 1, NL4/3BFL
[22] = system: Human immunodeficiency virus 1; test: Antiviral activity against HIV1 bearing HIV1 NL4-3 envelope infected in human HeLa CD4 cells coexpressing LTR/beta-Gal gene assessed as reduction in virus-induced beta-galactosidase reporter gene activity after 72 hrs by single-cycle infection assay; assay type: functional, organism-based; conditions: Human immunodeficiency virus 1, HeLa
[23] = system: Human immunodeficiency virus 1; test: Antiviral activity against recombinant HIV1 NL4/3B5'Env chimeric virus infected in human MT2 cells assessed as inhibition of virus-induced CPE; assay type: functional, organism-based; conditions: Human immunodeficiency virus 1, NL4/3B5'Env
[24] = system: Human immunodeficiency virus 1; test: Antiviral activity against HIV1 NL4-3 infected in human MT2 cells assessed as inhibition of viral p24 antigen level at 0.5 uM by Western blot; assay type: functional; conditions: Human immunodeficiency virus 1, NL4-3, MT2
[25] = system: Human immunodeficiency virus 1; test: Ratio of EC50 for recombinant HIV1 NL4-3/3BFL chimeric virus to EC50 for parental HIV1 NL4-3 virus; assay type: functional
[26] = system: Human immunodeficiency virus 1; test: Antiviral activity against HIV1 bearing VSV envelope infected in human HeLa CD4 cells coexpressing LTR/beta-Gal gene assessed as reduction in virus-induced beta-galactosidase reporter gene activity after 72 hrs by single-cycle infection assay; assay type: functional, organism-based; conditions: Human immunodeficiency virus 1, HeLa
[27] = system: Human immunodeficiency virus 1; test: Antiviral activity against HIV1 NL4-3 transfected in HEK293 cells assessed as inhibition of viral envelope gp160 processing at 15 uM by Western blot; assay type: functional; conditions: Human immunodeficiency virus 1, NL4-3, HEK293
[28] = system: Human immunodeficiency virus 1; test: Ratio of EC50 for recombinant HIV1 NL4-3/3BNt chimeric virus to EC50 for parental HIV1 NL4-3 virus; assay type: functional
[29] = system: Human immunodeficiency virus 1; test: Antiviral activity against HIV1 NL4-3 infected in human MT2 cells assessed as inhibition of virus-induced cytopathic effect after 6 days by XTT assay; assay type: functional, organism-based; conditions: Human immunodeficiency virus 1, NL4-3, MT2, 144 h
[30] = system: Human immunodeficiency virus 1; test: Antiviral activity against HIV1 NL4-3 transfected in HEK293 cells assessed as inhibition of viral envelope gp160 processing at 7.5 uM by Western blot; assay type: functional; conditions: Human immunodeficiency virus 1, NL4-3, HEK293

NC(=O)C(c1ccccc1)(c1ccccc1)[C@H]1CCCN(CCc2ccc3c(c2)CCO3)C1
fold change (FC) [1]: 0.9 | EC50 [2]: 24 µM | Activity [3]: 100% | EC50 [4]: Active | Activity [5]: Active | EC50 [6]: Active | inhibition at 15 µM [7]: 2% | fold change (FC) [8]: 2.1 | Activity [9]: inactive | EC50 [10]: 32 µM | CC50 at 144 h [11]: 53 µM | inhibition at 7.5 µM [12]: 99% | inhibition at 1 µM [13]: 44% | EC50 [14]: 1.2 µM | fold change (FC) [15]: >31 | EC50 [16]: > 32 µM | inhibition in vivo at 15 µM [17]: -6% | EC50 [18]: 2.7 µM | inhibition at 15 µM [19]: 100% | inhibition in vivo at 15 µM [20]: 99.5% | inhibition at 2 µM [21]: 2% | EC50 [22]: > 32 µM | EC50 [23]: > 32 µM | inhibition at 0.5 µM [24]: 12% | fold change (FC) [25]: >25 | EC50 [26]: > 32 µM | inhibition at 15 µM [27]: 100% | fold change (FC) [28]: 1 | EC50 [29]: 1.3 µM | inhibition at 7.5 µM [30]: 99%
